Source: patent US20090054470A1, “USE OF MITOCHONDRIAL ELECTRON TRANSPORT INHIBITORS TO CONTROL FOULING ORGANISMS” (priority 2005, published 2009)

Key:
[1] = tested on: Artemia salina instar II larvae; test: In vitro efficacy against Artemia salina (larval survival); assay type: in vivo
Procedure: 1. In Vitro Efficacy Against Artemia salina
The crustaceous marine animal Artemia salina was used as a model organism for other marine fouling organisms.
An artificial seawater medium inoculated with approximately 30 Artemia salina instar II larvae was introcuced in each well of a 24 well microtiter plate (2 ml per well). This culture was incubated with the test compound dissolved in dimethylsulfoxide (8000 ppm stock solution in DMSO) in order to have a final concentration of the test compound ranging from 0.027 ppm to 20 ppm in 24 steps. Survival of the Artemia salina larvae was evaluated after 24 and 48 hours. Zinc pyrithione was used as a reference art known antifouling agent and a DMSO solution without test compound was used as control.
The ECX value (in […]=ppm): lowest concentration of the test compound at which moderate activity (reduced vitality of Artemia salina larvae) was observed and has been listed below in Table 1.

animal fouling = test: Field evaluation of marine antifouling activity (painted PVC boards immersed in sea water); settings: Oosterschelde at Bruinisse, average of two scores; for Fouling scores after x weeks: vinylite paint on PVC panels; for Fouling scores after 12 weeks: rosin paint on PVC panels
Excerpt: 2. Field Evaluation of Marine Antifouling Activity […]
Composition vinylite paint (% w/w): 9.1% test compound (74% in the dried coating), 3.2% vinylite, 87.7% cyclohexanone.
Composition rosin paint (% w/w): 6.7% test compound (18.4% in the dried coating), 34.9% rosin (69.6% in xylene), 6.3% vinyl resin, 5.7% tritolyl phosphate, 45.0% methyl isobutylketone and 1.4% xylene.
The PVC boards (10×2×0.5 cm) were painted twice to obtain a coating layer of 140 g/m^2 having a thickness of 50 μm and dried for two weeks before immersion in sea water. The exact quantity of test compound on each board was determined by comparing the initial and final weights of the PVC boards. The PVC boards were placed in a frame and suspended from the bottom of a raft at a depth of 0.6 m below the sea water surface level.
Rating system to evaluate surface fouling:
score 0: no growth on the panel score 1: up to 20% of the surface covered by fouling organisms score 2: between 21% and 40% of the surface covered by fouling organisms score 3: between 41% and 60% of the surface covered by fouling organisms score 4: between 61% and 80% of the surface covered by fouling organisms score 5: more than 81% of the surface covered by fouling organisms
Figures are an average of two scores (back and front of test panel).

CC(C)(C)c1ccc(CCOc2ncnc3ccccc23)cc1 [fenazaquin]
ECX (lowest concentration at which reduced vitality of Artemia salina larvae) ([1]; 24 hours): 0.84 mg/l (=ppm)
MIC (lowest concentration at which all Artemia salina larvae dead) ([1]; 24 hours): 1.5 mg/l (=ppm)
ECX (lowest concentration at which reduced vitality of Artemia salina larvae) ([1]; 48 hours): 0.84 mg/l (=ppm)
MIC (lowest concentration at which all Artemia salina larvae dead) ([1]; 48 hours): 1.5 mg/l (=ppm)
Fouling scores after x weeks (animal fouling; 4 weeks): 0
Fouling scores after x weeks (animal fouling; 8 weeks): 0
Fouling scores after x weeks (animal fouling; 15 weeks): 3 (score 3: between 41% and 60% of the surface covered by fouling organisms)

CC(C)(C)c1ccc(CSc2cnn(C(C)(C)C)c(=O)c2Cl)cc1 [pyridaben]
ECX (lowest concentration at which reduced vitality of Artemia salina larvae) ([1]; 24 hours): 0.36 mg/l (=ppm)
MIC (lowest concentration at which all Artemia salina larvae dead) ([1]; 24 hours): 2 mg/l (=ppm)
ECX (lowest concentration at which reduced vitality of Artemia salina larvae) ([1]; 48 hours): 0.36 mg/l (=ppm)
MIC (lowest concentration at which all Artemia salina larvae dead) ([1]; 48 hours): 0.48 mg/l (=ppm)
Fouling scores after 12 weeks (animal fouling): 1.5

CCc1nn(C)c(C(=O)NCc2ccc(C(C)(C)C)cc2)c1Cl [tebufenpyrad]
ECX (lowest concentration at which reduced vitality of Artemia salina larvae) ([1]; 24 hours): 1.13 mg/l (=ppm)
MIC (lowest concentration at which all Artemia salina larvae dead) ([1]; 24 hours): 2 mg/l (=ppm)
ECX (lowest concentration at which reduced vitality of Artemia salina larvae) ([1]; 48 hours): 0.84 mg/l (=ppm)
MIC (lowest concentration at which all Artemia salina larvae dead) ([1]; 48 hours): 1.5 mg/l (=ppm)
Fouling scores after 12 weeks (animal fouling): 1.5

Zinc pyrithione
ECX (lowest concentration at which reduced vitality of Artemia salina larvae) ([1]; 24 hours): 8.44 mg/l (=ppm)
MIC (lowest concentration at which all Artemia salina larvae dead) ([1]; 24 hours): 20 mg/l (=ppm)
ECX (lowest concentration at which reduced vitality of Artemia salina larvae) ([1]; 48 hours): 6.33 mg/l (=ppm)
MIC (lowest concentration at which all Artemia salina larvae dead) ([1]; 48 hours): 11.25 mg/l (=ppm)
